Data reported in US20250353848A1, “HETEROCYCLIC PAD4 INHIBITORS” (Celgene Corporation, priority 2022, published 2025).

Experiments:
[1] = biological target: T1, hPAD4 enzyme (Homo sapiens, UniProt Q9UM07); assay: RFMS Assay 2 (rapid-fire mass spectrum PAD4 inhibition assay, peptide substrate); type: biochemical; conditions: 35 nM recombinant human PAD4, substrate TSTGGRQGSHH, room temperature for 30 minutes; read-out: human PAD4 (hPAD4) IC50, RFMS Assay 2
Procedure: Stock compounds were dissolved and stored in 100% DMSO. Compound solutions were prepared via serial dilution at 3-fold intervals in DMSO with top compound concentration at […] in each assay. 0.25 μl of compound solution was transferred from the compound plate to the assay plate by using an acoustic dispenser. Final assay conditions: • Total reaction volume: 25 μl • Assay buffer: […] pH 7.4, 200 mM NaCl, 2 mM CaCl2, 5 mM DTT • 35 nM recombinant human PAD4 • 500 µM TSTGGRQGSHH (SEQ ID NO: 1) • 1.2% DMSO • Stop solution: 10% formic acid
Reaction mixtures were incubated at room temperature for 30 minutes. 10 μl each of the reaction mixtures was then mixed with 40 μl of 10% formic acid in a microtiter plate. The plate was frozen at −80° C. before shipping out on dry ice for RapidFire mass spectroscopy analysis.
Thawed samples were loaded onto the Rapid Fire 300 system (Agilent) wherein they were first sipped for 250 ms and then loaded onto a Agilent “C” (C18) cartridge using a mobile phase of water containing 0.09% formic acid/0.01% trifluoroacetic acid for 3000 ms desalting flowing at a rate of 1.5 ml/min. Once the samples were loaded and washed, a mobile phase of acetonitrile containing 0.09% formic acid/0.01% trifluoroacetic acid was used to elute the samples directly onto a Sciex API4000 triple quadrupole mass spectrometer for 3000 ms at a flow rate of 1.25 ml/min.
MRM transitions for substrate and product were monitored in positive ESI mode at m/z=562.3/969.7 and m/z=562.8/541.3 respectively. The dwell time for each transition was set at 100 ms, and the ESI voltage was used at 5500 with a source temperature of 650° C. Extracted ion peaks for each transition were integrated using the Rapid Fire Integrator software.

[2] = biological target: T1, hPAD4 enzyme; assay: RFMS Assay 1 (rapid-fire mass spectrum PAD4 inhibition assay, BAEE substrate); type: biochemical; conditions: 5 nM hPAD4 enzyme, 250 μM BAEE, 30 mins compound and enzyme preincubation at 37° C., 90 min enzyme/substrate reaction
Summary of the method: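 Human PAD4 (5 nM) preincubated 30 min at 37 °C with compound (top 50 μM, 0.5% DMSO), then 250 μM BAEE for 90 min at 37 °C in pH 7.5 HEPES with 50 μM calcium, 5 μM TPEN, 1 mM DTT. Product derivatized with phenyl glyoxal; citrulline product quantified by RapidFire MS/MS MRM, normalized to internal standard.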

T1 sequence (Q9UM07 whole entry): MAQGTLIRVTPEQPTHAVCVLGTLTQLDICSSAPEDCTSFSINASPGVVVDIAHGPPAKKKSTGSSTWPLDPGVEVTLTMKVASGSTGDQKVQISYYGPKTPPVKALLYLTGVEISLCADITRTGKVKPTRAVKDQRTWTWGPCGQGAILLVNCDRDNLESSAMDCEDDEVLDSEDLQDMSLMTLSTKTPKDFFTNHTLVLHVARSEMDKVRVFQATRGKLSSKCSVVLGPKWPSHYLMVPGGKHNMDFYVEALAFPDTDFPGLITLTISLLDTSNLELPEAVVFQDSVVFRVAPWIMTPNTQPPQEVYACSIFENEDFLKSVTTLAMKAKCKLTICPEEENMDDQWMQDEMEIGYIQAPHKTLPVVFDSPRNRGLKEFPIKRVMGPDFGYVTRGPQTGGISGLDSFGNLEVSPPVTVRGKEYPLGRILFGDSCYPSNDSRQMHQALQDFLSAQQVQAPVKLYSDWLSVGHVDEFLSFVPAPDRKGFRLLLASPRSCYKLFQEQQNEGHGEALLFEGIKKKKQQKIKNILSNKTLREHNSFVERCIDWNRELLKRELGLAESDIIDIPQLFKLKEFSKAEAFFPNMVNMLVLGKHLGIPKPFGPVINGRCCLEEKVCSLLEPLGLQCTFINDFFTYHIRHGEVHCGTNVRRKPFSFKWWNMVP

Structure (SMILES)	IC50 [1]	IC50 [2]
Cn1c(-c2cc3cccc(OC[C@@H]4CNC(=O)C4)c3n2CC2CC2)nc2cc3c(nc21)CCN(C[C@H](N)CF)C3=O [Example 59, 7-((S)-2-amino-3-fluoropropyl)-2-(1-(cyclopropylmethyl)-7-(((S)-5-oxopyrrolidin-3-yl)methoxy)-1H-indol-2-yl)-3-methyl-3,5,6,7-tetrahydro-8H-imidazo[4,5-b][1,6]naphthyridin-8-one]	11 to 100 nM	11 to 100 nM
Cn1c(-c2cc3ccnc(OC[C@@H]4CNC(=O)C4)c3n2CC2CC2)nc2cc3c(nc21)CCN(C[C@H](N)CF)C3=O [Example 82, 7-((S)-2-amino-3-fluoropropyl)-2-(1-(cyclopropylmethyl)-7-(((S)-5-oxopyrrolidin-3-yl)methoxy)-1H-pyrrolo[2,3-c]pyridin-2-yl)-3-methyl-3,5,6,7-tetrahydro-8H-imidazo[4,5-b][1,6]naphthyridin-8-one]	101 to 500 nM	101 to 500 nM
Cn1c(-c2cc3ccc(C(C)(C)O)nc3n2CC2CC2)nc2cc3c(nc21)CCN(C[C@H](N)CF)C3=O [Example 33, (S)-7-(2-amino-3-fluoropropyl)-2-(1-(cyclopropylmethyl)-6-(2-hydroxypropan-2-yl)-1H-pyrrolo[2,3-b]pyridin-2-yl)-3-methyl-3,5,6,7-tetrahydro-8H-imidazo[4,5-b][1,6]naphthyridin-8-one]	501 to 1000 nM	11 to 100 nM
Cn1c(-c2cc3cccc(OCCn4cncc4F)c3n2CC2CC2)nc2cc3c(nc21)CCN(C[C@H](N)CF)C3=O [Example 42, (S)-7-(2-amino-3-fluoropropyl)-2-(1-(cyclopropylmethyl)-7-(2-(5-fluoro-1H-imidazol-1-yl)ethoxy)-1H-indol-2-yl)-3-methyl-3,5,6,7-tetrahydro-8H-imidazo[4,5-b][1,6]naphthyridin-8-one]	101 to 500 nM	11 to 100 nM
COc1cc(F)cc2cc(-c3nc4cc5c(nc4n3C)CCN(C[C@H](N)CF)C5=O)n(Cc3ccno3)c12 [Example 22, (S)-7-(2-amino-3-fluoropropyl)-2-(5-fluoro-1-(isoxazol-5-ylmethyl)-7-methoxy-1H-indol-2-yl)-3-methyl-3,5,6,7-tetrahydro-8H-imidazo[4,5-b][1,6]naphthyridin-8-one]	101 to 500 nM	101 to 500 nM
COc1cccc2cc(-c3nc4cc5c(nc4n3C)CCN(C[C@H](N)CF)C5=O)n(Cc3ncco3)c12 [Example 8, (S)-7-(2-amino-3-fluoropropyl)-2-(7-methoxy-1-(oxazol-2-ylmethyl)-1H-indol-2-yl)-3-methyl-3,5,6,7-tetrahydro-8H-imidazo[4,5-b][1,6]naphthyridin-8-one]	501 to 1000 nM	501 to 1000 nM
Cc1nnc(CCOc2cccc3cc(-c4nc5cc6c(nc5n4C)CCN(C[C@H](N)CF)C6=O)n(CC4CC4)c23)o1 [Example 54, (S)-7-(2-amino-3-fluoropropyl)-2-(1-(cyclopropylmethyl)-7-(2-(5-methyl-1,3,4-oxadiazol-2-yl)ethoxy)-1H-indol-2-yl)-3-methyl-3,5,6,7-tetrahydro-8H-imidazo[4,5-b][1,6]naphthyridin-8-one]	11 to 100 nM	11 to 100 nM
Cn1c(-c2cc3cccc(OCCc4ccn[nH]4)c3n2CC2CC2)nc2cc3c(nc21)CCN(C[C@H](N)CF)C3=O [Example 43, (S)-2-(7-(2-(1H-pyrazol-5-yl)ethoxy)-1-(cyclopropylmethyl)-1H-indol-2-yl)-7-(2-amino-3-fluoropropyl)-3-methyl-3,5,6,7-tetrahydro-8H-imidazo[4,5-b][1,6]naphthyridin-8-one]	11 to 100 nM	≤ 10 nM
Cn1c(-c2cc3cccnc3n2CC2CC2)nc2cc3c(nc21)CCN(C[C@H](N)CF)C3=O [Example 19, (S)-7-(2-amino-3-fluoropropyl)-2-(1-(cyclopropylmethyl)-1H-pyrrolo[2,3-b]pyridin-2-yl)-3-methyl-3,5,6,7-tetrahydro-8H-imidazo[4,5-b][1,6]naphthyridin-8-one]	> 1000 nM	501 to 1000 nM
C[C@H](COc1cccc2cc(-c3nc4cc5c(nc4n3C)CCN(C[C@H](N)CF)C5=O)n(CC3CC3)c12)n1cnc(F)c1 [Example 85, 7-((S)-2-amino-3-fluoropropyl)-2-(1-(cyclopropylmethyl)-7-((R)-2-(4-fluoro-1H-imidazol-1-yl)propoxy)-1H-indol-2-yl)-3-methyl-3,5,6,7-tetrahydro-8H-imidazo[4,5-b][1,6]naphthyridin-8-one]	11 to 100 nM	≤ 10 nM
[2H]C([2H])(Oc1cccc2cc(-c3nc4cc5c(nc4n3C)CCN(C[C@H](N)CF)C5=O)n(CC3CC3)c12)C([2H])([2H])n1ccnc1 [Example 95, (S)-2-(7-(2-(1H-imidazol-1-yl)ethoxy-1,1,2,2-d4)-1-(cyclopropylmethyl)-1H-indol-2-yl)-7-(2-amino-3-fluoropropyl)-3-methyl-3,5,6,7-tetrahydro-8H-imidazo[4,5-b][1,6]naphthyridin-8-one]	11 to 100 nM	≤ 10 nM
CC(Cc1cnco1)Oc1cc(F)cc2cc(-c3nc4cc5c(nc4n3C)CCN(C[C@H](N)CF)C5=O)n(CC3CC3)c12 (single isomer, unassigned) [Example 65a]	101 to 500 nM	≤ 10 nM

Next, values leading:

IC50 [1]	IC50 [2]	Structure (SMILES)
11 to 100 nM	≤ 10 nM	Cn1c(-c2cc3cccc(OCCc4cnco4)c3n2CC2CC2)nc2cc3c(nc21)CCN(C[C@H](N)CF)C3=O [Example 41, (S)-7-(2-amino-3-fluoropropyl)-2-(1-(cyclopropylmethyl)-7-(2-(oxazol-5-yl)ethoxy)-1H-indol-2-yl)-3-methyl-3,5,6,7-tetrahydro-8H-imidazo[4,5-b][1,6]naphthyridin-8-one]
101 to 500 nM	101 to 500 nM	COc1cccc2cc(-c3nc4cc5c(nc4n3C)CCN(C[C@H](N)CF)C5=O)n(Cc3cc(C)no3)c12 [Example 12, (S)-7-(2-amino-3-fluoropropyl)-2-(7-methoxy-1-((3-methylisoxazol-5-yl)methyl)-1H-indol-2-yl)-3-methyl-3,5,6,7-tetrahydro-8H-imidazo[4,5-b][1,6]naphthyridin-8-one]
11 to 100 nM	≤ 10 nM	Cn1c(-c2cc3cccc(OC(F)Cn4cncc4F)c3n2CC2CC2)nc2cc3c(nc21)CCN(C[C@H](N)CF)C3=O (single isomer, unassigned) [Example 75a]
11 to 100 nM	≤ 10 nM	C[C@@H](COc1cccc2cc(-c3nc4cc5c(nc4n3C)CCN(C[C@H](N)CF)C5=O)n(CC3CC3)c12)n1cnc(F)c1 [Example 86, 7-((S)-2-amino-3-fluoropropyl)-2-(1-(cyclopropylmethyl)-7-((S)-2-(4-fluoro-1H-imidazol-1-yl)propoxy)-1H-indol-2-yl)-3-methyl-3,5,6,7-tetrahydro-8H-imidazo[4,5-b][1,6]naphthyridin-8-one]
11 to 100 nM	≤ 10 nM	Cn1c(-c2cc3cccc(OC(F)Cn4ccnc4)c3n2CC2CC2)nc2cc3c(nc21)CCN(C[C@H](N)CF)C3=O (single isomer, unassigned) [Example 74a]
101 to 500 nM	101 to 500 nM	COc1cccc2cc(-c3nc4cc5c(nc4n3C)CCN(C[C@H](N)CF)C5=O)n(Cc3ncc(C)o3)c12 [Example 11, (S)-7-(2-amino-3-fluoropropyl)-2-(7-methoxy-1-((5-methyloxazol-2-yl)methyl)-1H-indol-2-yl)-3-methyl-3,5,6,7-tetrahydro-8H-imidazo[4,5-b][1,6]naphthyridin-8-one]
11 to 100 nM	≤ 10 nM	Cn1c(-c2cc3cccc(OCCc4ccon4)c3n2CC2CC2)nc2cc3c(nc21)CCN(C[C@H](N)CF)C3=O [Example 46, (S)-7-(2-amino-3-fluoropropyl)-2-(1-(cyclopropylmethyl)-7-(2-(isoxazol-3-yl)ethoxy)-1H-indol-2-yl)-3-methyl-3,5,6,7-tetrahydro-8H-imidazo[4,5-b][1,6]naphthyridin-8-one]
11 to 100 nM	≤ 10 nM	Cn1c(-c2cc3cccc(OCCc4cnn[nH]4)c3n2CC2CC2)nc2cc3c(nc21)CCN(C[C@H](N)CF)C3=O [Example 47, (S)-2-(7-(2-(1H-1,2,3-triazol-5-yl)ethoxy)-1-(cyclopropylmethyl)-1H-indol-2-yl)-7-(2-amino-3-fluoropropyl)-3-methyl-3,5,6,7-tetrahydro-8H-imidazo[4,5-b][1,6]naphthyridin-8-one]
